According to patent publication US20070060573A1, “Acyltryptophanols” (priority 2005, published 2007):
pIC50: −log10 of the molar value.

Molecular target: T1, human FSH receptor (Homo sapiens, UniProt P23945)
T1 construct: expressed in transfected cells; host or cells: CHO cells (hFSHR clone 16)
T1 sequence (P23945 18-695): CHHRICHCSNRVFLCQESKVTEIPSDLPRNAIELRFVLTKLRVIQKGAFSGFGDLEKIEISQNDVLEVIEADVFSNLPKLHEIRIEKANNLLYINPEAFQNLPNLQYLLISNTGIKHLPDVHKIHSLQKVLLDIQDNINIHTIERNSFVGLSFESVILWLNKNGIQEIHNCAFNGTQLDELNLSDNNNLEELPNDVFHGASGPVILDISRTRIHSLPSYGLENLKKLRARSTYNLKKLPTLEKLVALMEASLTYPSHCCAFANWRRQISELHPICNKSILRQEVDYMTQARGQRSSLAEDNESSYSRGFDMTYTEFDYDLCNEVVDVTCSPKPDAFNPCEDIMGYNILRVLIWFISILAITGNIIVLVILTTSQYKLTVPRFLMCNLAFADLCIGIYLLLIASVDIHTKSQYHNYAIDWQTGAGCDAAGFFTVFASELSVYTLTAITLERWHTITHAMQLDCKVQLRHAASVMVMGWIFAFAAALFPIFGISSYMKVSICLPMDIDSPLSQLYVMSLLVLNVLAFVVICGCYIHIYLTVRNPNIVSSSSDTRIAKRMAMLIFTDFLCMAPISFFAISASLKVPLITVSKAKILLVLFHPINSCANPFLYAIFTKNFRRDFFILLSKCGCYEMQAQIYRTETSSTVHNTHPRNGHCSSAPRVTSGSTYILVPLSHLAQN
Assay: HTRF assay for measuring cAMP in cells, FSH-antagonistic effect (in the presence of hFSH)
Format: cell-based
Conditions: hFSHR clone 16 cells (CHO cells stably transfected with the human FSH receptor), in the presence of 1e-9 mol/l hFSH, 37° C. for 2 h
Excerpt: […]

Structure (SMILES) | pIC50
COc1ccc2cc(-c3cc(C(=O)N[C@@H](CO)Cc4c[nH]c5ccccc45)c4ccccc4n3)ccc2c1 [Example 97, 2-(6-Methoxy-naphthalen-2-yl)quinoline-4-carboxylic acid [(R)-1-hydroxymethyl-2-(1H-indol-3-yl)ethyl]amide] | 5.40
COc1ccc2nc(-c3cc4c(F)cccc4o3)cc(C(=O)N[C@@H](CO)Cc3c[nH]c4ccccc34)c2c1 [Example 120, 2-(4-Fluorobenzofuran-2-yl)-N-[(R)-1-(hydroxymethyl)-2-(1H-indol-3-yl)ethyl]-6-methoxyquinoline-4-carboxamide] | 5.82
CCOc1ccc(-c2cnc(OC)nc2)cc1C(=O)N[C@@H](CO)Cc1c[nH]c2ccccc12 [Example 130, 2-Ethoxy-N-[(R)-1-hydroxymethyl-2-(1H-indol-3-yl)ethyl]-5-(2-methoxypyrimidin-5-yl)benzamide] | 5.40
CCn1cc(C[C@H](CO)NC(=O)c2cc(-c3cc(F)c(OC)c(F)c3)nc3ccc(OC)cc23)c2ccccc21 [Example 337] | 5.46
CCCCCCn1cc(C[C@H](CO)NC(=O)c2cc(-c3cc(OC)c(OC)c(OC)c3)nc3ccc(OC)cc23)c2ccccc21 [Example 345, N-[(R)-1-(Hydroxymethyl)-2-(1-nhexyl-1H-indol-3-yl)ethyl]-6-methoxy-2-(3,4,5-trimethoxyphenyl)quinoline-4-carboxamide] | 6.00
COc1cc(-c2cc(C(=O)N[C@@H](CO)Cc3c[nH]c4ccccc34)c3nc[nH]c3c2)cc(OC)c1OC [Example 361, 6-(3,4,5-Trimethoxyphenyl)-1H-benzoimidazole-4-carboxylic acid [(R)-2-hydroxy-1-(1H-indol-3-ylmethyl)ethyl]amide] | 5.40
COc1ccc2nc(-c3ccc(OC)c(F)c3)nc(C(=O)N[C@@H](CO)Cc3c[nH]c4ccccc34)c2c1 [Example 368, 2-(3-Fluoro-4-methoxyphenyl)-6-methoxyquinazoline-4-carboxylic acid [(R)-2-hydroxy-1-(1H-indol-3-ylmethyl)ethyl]amide] | 5.60
COc1cc(-c2cc(C#CCO)cc(C(=O)N[C@@H](CO)Cc3c[nH]c4ccccc34)c2)cc(OC)c1OC [Example 379, 5-(3-Hydroxyprop-1-ynyl)-3′,4′,5′-trimethoxybiphenyl-3-carboxylic acid [(R)-1-hydroxy-methyl-2-(1H-indol-3-yl)ethyl]amide] | 5.35
COc1cc(-c2cc(/C=C\CCCO)cc(C(=O)N[C@@H](CO)Cc3c[nH]c4ccccc34)c2)cc(OC)c1OC [Example 388, 5-((Z)-5-Hydroxypent-1-enyl)-3′,4′,5′-trimethoxybiphenyl-3-carboxylic acid [(R)-1-hydroxy-methyl-2-(1H-indol-3-yl)ethyl]amide] | 6.40
CCOc1ccc(-c2ccc(S(=O)(=O)CC)cc2)cc1C(=O)N[C@@H](CO)Cc1c[nH]c2ccccc12 [Example 483, 4-Ethanesulphonyl-4-ethoxybiphenyl-3-carboxylic [(R)-2-hydroxy-1-(1H-indol-3-ylmethyl)ethyl]amide] | 6.00

The next lines start with the values.

pIC50 | Structure (SMILES)
5.00 | COc1ccc(-c2cc(F)c(F)c(F)c2)c(C(=O)N[C@@H](CO)Cc2c[nH]c3ccccc23)c1 [Example 88, 3′,4′, 5′-Trifluoro-N-[(R)-1-(hydroxymethyl)-2-(1H-indol-3-yl)ethyl]-4-methoxy[1,1′-biphenyl]-2-carboxamide]
5.22 | COc1cc(COc2ccccc2CCC(=O)N[C@@H](CO)Cc2c[nH]c3ccccc23)cc(OC)c1OC [Example 91, N-[(R)-1-(Hydroxymethyl)-2-(1H-indol-3-yl)ethyl]-2-[(3,4,5-trimethoxyphenyl)methoxy]phenylpropanamide]
5.15 | COc1ccc2nc(CCc3ccc(OC)c(OC)c3)cc(C(=O)N[C@@H](CO)Cc3c[nH]c4ccccc34)c2c1 [Example 96, 2-[2-(3,4-dimethoxyphenyl)ethyl]-N-[(R)-1-(hydroxymethyl)-2-(1H-indol-3-yl)ethyl]-6-methoxyquinoline-4-carboxamide]
5.52 | Cc1nc(C)c(-c2cc(C(=O)N[C@@H](CO)Cc3c[nH]c4ccccc34)c3cc(Br)ccc3n2)s1 [Example 108, 6-Bromo-2-(2,4-dimethyl-thiazol-5-yl)quinoline-4-carboxylic acid [(R)-2-hydroxy-1-(1H-indol-3-ylmethyl)ethyl]amide]
5.82 | CCOc1ccc(-c2ccc(C)cc2)cc1C(=O)N[C@@H](CO)Cc1c[nH]c2ccccc12 [Example 162, 4-Ethoxy-4′-methylbiphenyl-3-carboxylic acid [(R)-1-hydroxy-methyl-2-(1H-indol-3-yl)ethyl]amide]
6.35 | COc1ccc(-c2ccc(OC)c(C(=O)N[C@@H](CO)Cc3c[nH]c4ccccc34)c2)cc1F [Example 307, 3′-Fluoro-4,4′-dimethoxybiphenyl-3-carboxylic acid [(R)-2-hydroxy-1-(1H-indol-3-ylmethyl)ethyl]amide]
5.10 | COc1ccc2nc(-c3cc(OC)c(OC)c(OC)c3)cc(C(=O)N[C@H](Cc3c[nH]c4ccccc34)C(C)(C)O)c2c1 [Example 373, 6-Methoxy-2-(3,4,5-trimethoxyphenyl)quinoline-4-carboxylic acid [(R)-2-hydroxy-1-(1H-indol-3-ylmethyl)-2-methylpropyl]amide]
5.82 | COCCCc1ccc2nc(-c3cc(OC)c(OC)c(OC)c3)cc(C(=O)N[C@@H](CO)Cc3c[nH]c4ccccc34)c2c1 [Example 392, 6-(3-Methoxypropyl)-2-(3,4,5-trimethoxyphenyl) quinoline-4-carboxylic acid [(R)-1-hydroxy-methyl-2-(1H-indol-3-yl)ethyl]amide]
5.46 | COc1ccc(-c2cc(CCCO)cc(C(=O)N[C@@H](CO)Cc3c[nH]c4ccccc34)c2)cc1OC [Example 396, 5-(3-Hydroxypropyl)-3′,4′-dimethoxybiphenyl-3-carboxylic acid [(R)-1-hydroxymethyl-2-(1H-indol-3-yl)ethyl]amide]
7.00 | COc1ccc(-c2cccc(C(=O)N[C@@H](CO)Cc3cn(CCCCC#N)c4ccccc34)c2)cc1F [Example 403, N-[(R)-2-[1-(4-Cyanobutyl)-1H-indol-3-yl]-1-(hydroxymethyl)ethyl]-3′-fluoro-4′-methoxy[1,1′-biphenyl]-3-carboxamide]
6.52 | O=C(N[C@@H](CO)Cc1c[nH]c2ccccc12)c1cc(-c2ccc3c(c2)OCO3)ccc1OC1CCCC1 [Example 418, 5-Benzo[1,3]dioxol-5-yl-2-cyclopentyloxy-N-[(R)-1-hydroxymethyl-2-(1H-indol-3-yl)ethyl]benzamide]
6.40 | CCOc1ccc(-c2cccc(-c3ccccc3)c2)cc1C(=O)NC(CO)Cc1c[nH]c2ccccc12 (stereo not shown) [Example 430, 4-Ethoxy-[1,1′; 3′,1″]terphenyl-3-carboxylic acid [1-hydroxymethyl-2-(1H-indol-3-yl)ethyl]amide]
